*1 amine or outer side, *2 acyl side, *3 side chain or, on linkers, in order; H or OH if unused. Where a SMILES comes first, the peptide text is derived from it. [ ]: non-standard residue; d: D form. Ala(2-NH2-benzothiazol-6-yl) = Nc1nc2ccc(C[C@H](N)C(=O)O)cc2s1; Phe(2,6-Me2,4-CONH2) = Cc1cc(C(N)=O)cc(C)c1C[C@H](N)C(=O)O; Phe(3-CONH2) = NC(=O)c1cccc(C[C@H](N)C(=O)O)c1; Phe(4-CONH2) = NC(=O)c1ccc(C[C@H](N)C(=O)O)cc1; X1 = O=C([C@H](Cc1cc[n+]([O-])cc1)N[*:1])[*:2]
Legend:
[1] = target: T1, Mu-type opioid receptor (Homo sapiens, UniProt P35372)
[2] = target: T2, Delta-type opioid receptor (Homo sapiens, UniProt P41143)
[3] = target: Kappa-type opioid receptor (Homo sapiens, UniProt P41145)
[4] = target: T2, Delta-type opioid receptor; assay type: functional
[5] = target: T1, Mu-type opioid receptor; assay type: functional

T1 sequence (P35372 whole entry): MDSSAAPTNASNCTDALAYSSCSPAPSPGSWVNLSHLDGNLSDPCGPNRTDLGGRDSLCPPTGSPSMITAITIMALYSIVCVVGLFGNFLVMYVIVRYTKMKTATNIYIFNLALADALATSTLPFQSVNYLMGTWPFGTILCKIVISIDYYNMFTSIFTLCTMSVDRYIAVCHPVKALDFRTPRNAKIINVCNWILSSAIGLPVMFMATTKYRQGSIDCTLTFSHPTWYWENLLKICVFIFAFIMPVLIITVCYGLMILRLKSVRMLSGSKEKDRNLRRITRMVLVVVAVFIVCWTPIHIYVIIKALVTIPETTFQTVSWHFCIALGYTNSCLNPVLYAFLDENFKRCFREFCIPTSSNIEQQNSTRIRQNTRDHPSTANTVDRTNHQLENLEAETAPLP
Sequence of Kappa-type opioid receptor (P41145 whole entry): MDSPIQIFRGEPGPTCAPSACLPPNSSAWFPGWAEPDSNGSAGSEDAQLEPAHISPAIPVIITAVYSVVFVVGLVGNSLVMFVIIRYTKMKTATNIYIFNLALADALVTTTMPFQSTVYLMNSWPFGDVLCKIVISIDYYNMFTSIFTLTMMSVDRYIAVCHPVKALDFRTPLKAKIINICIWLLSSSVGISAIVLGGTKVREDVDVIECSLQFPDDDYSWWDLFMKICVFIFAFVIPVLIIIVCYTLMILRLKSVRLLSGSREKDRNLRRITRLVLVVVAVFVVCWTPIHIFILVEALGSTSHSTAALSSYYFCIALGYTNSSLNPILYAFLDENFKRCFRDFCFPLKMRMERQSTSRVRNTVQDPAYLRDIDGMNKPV
T2 sequence (P41143 whole entry): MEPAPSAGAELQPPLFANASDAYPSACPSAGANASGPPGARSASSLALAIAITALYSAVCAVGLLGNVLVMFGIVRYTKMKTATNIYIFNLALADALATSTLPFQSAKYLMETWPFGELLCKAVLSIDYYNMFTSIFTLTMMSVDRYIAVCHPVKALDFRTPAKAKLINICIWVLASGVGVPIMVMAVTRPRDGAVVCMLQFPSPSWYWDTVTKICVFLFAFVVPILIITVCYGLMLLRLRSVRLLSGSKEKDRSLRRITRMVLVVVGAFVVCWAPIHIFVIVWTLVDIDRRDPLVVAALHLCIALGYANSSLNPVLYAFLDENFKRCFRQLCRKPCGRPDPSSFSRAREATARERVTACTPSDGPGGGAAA

**Q.** What does the source list for CC(C)C[C@@H](NC(=O)[C@H](Cc1ccccc1)NC(=O)CNC(=O)[C@@H](C)NC(=O)[C@@H](N)Cc1ccc2nc(N)sc2c1)C(=O)O?
**A.** Ki [1]: 1200 nM; Ki [2]: 10 nM; Ki [3]: > 10000 nM; EC50 [4]: 150 nM

**Q.** Which results are given for CC(C)C[C@H](NC(=O)[C@H](Cc1ccccc1)NC(=O)CNC(=O)CNC(=O)[C@@H](N)Cc1cccc(C(N)=O)c1)C(=O)O (H-[Phe(3-CONH2)]GGFL-OH)?
**A.** Ki [1]: > 10000 nM; Ki [2]: 475 nM; Ki [3]: > 10000 nM

**Q.** With CSCC[C@H](NC(=O)[C@H](Cc1ccccc1)NC(=O)CNC(=O)CNC(=O)[C@@H](N)Cc1ccc(O)cc1)C(N)=O as the compound, how does the Ki [3] read?
**A.** 210 nM

**Q.** With Cc1cc(C(N)=O)cc(C)c1C[C@H](N)C(=O)N[C@H](C)C(=O)NCC(=O)N[C@@H](Cc1ccccc1)C(=O)N[C@H](CC(C)C)C(=O)O as the compound, how does the Ki [1] read?
**A.** 9.8 nM

**Q.** What about the Ki [2] of the same compound?
**A.** 0.78 nM

**Q.** And the Ki [3]?
**A.** 2400 nM

**Q.** And the EC50 [5]?
**A.** 49 nM

**Q.** What about the EC50 [4] of the same compound?
**A.** 2.5 nM

**Q.** With CC1(C)SSC(C)(C)[C@@H](NC(=O)[C@@H](N)Cc2ccc(C(N)=O)cc2)C(=O)NCC(=O)N[C@@H](Cc2ccccc2)C(=O)N[C@H]1C(=O)O as the compound, how does the Ki [1] read?
**A.** > 10000 nM

**Q.** And the Ki [2]?
**A.** 19 nM

**Q.** And the Ki [3]?
**A.** > 10000 nM

**Q.** What about the EC50 [4] of the same compound?
**A.** 320 nM

**Q.** How did the Ki [1] turn out when CC(C)C[C@H](NC(=O)[C@H](Cc1ccccc1)NC(=O)CNC(=O)CNC(=O)[C@@H](N)Cc1ccc2nc(N)sc2c1)C(=O)O (H-[Ala(2-NH2-benzothiazol-6-yl)]GGFL-OH) was run?
**A.** 1200 nM

**Q.** And the Ki [2]?
**A.** 19 nM

**Q.** And the Ki [3]?
**A.** > 10000 nM

**Q.** And the EC50 [4]?
**A.** 580 nM

**Q.** Which Ki [1] does the source give for CC(C)C[C@@H](NC(=O)[C@H](Cc1ccccc1)NC(=O)CNC(=O)[C@@H](C)NC(=O)[C@@H](N)Cc1ccc(C(=O)O)cc1)C(=O)O here?
**A.** > 10000 nM

**Q.** What about the Ki [2] of the same compound?
**A.** 1100 nM

**Q.** And the Ki [3]?
**A.** > 10000 nM

**Q.** For CSCC[C@H](NC(=O)[C@H](Cc1ccccc1)NC(=O)CNC(=O)CNC(=O)[C@@H](N)Cc1ccc(C(N)=O)cc1)C(=O)O (H-[Phe(4-CONH2)]GGFM-OH), which Ki [1] is on record?
**A.** 28 nM

**Q.** What about the Ki [2] of the same compound?
**A.** 1.8 nM

**Q.** And the Ki [3]?
**A.** 1030 nM

**Q.** And the EC50 [5]?
**A.** 140 nM

**Q.** What about the EC50 [4] of the same compound?
**A.** 5.2 nM

**Q.** CC(C)C[C@H](NC(=O)[C@H](Cc1ccccc1)NC(=O)CNC(=O)[C@@H](CO)NC(=O)[C@@H](N)Cc1ccc2nc(N)sc2c1)C(=O)N[C@H](C(=O)O)[C@@H](C)O was tested. Which Ki [1] did it give?
**A.** 640 nM

**Q.** What about the Ki [2] of the same compound?
**A.** 3.8 nM

**Q.** What about the Ki [3] of the same compound?
**A.** > 10000 nM

**Q.** And the EC50 [4]?
**A.** 97 nM

**Q.** Which results are given for CC(C)C[C@@H](NC(=O)[C@H](Cc1ccccc1)NC(=O)CNC(=O)[C@@H](C)NC(=O)[C@@H](N)Cc1cccc(C(N)=O)c1)C(=O)O?
**A.** Ki [1]: 560 nM; Ki [2]: 170 nM; Ki [3]: > 10000 nM; EC50 [4]: 1700 nM

**Q.** CSCC[C@H](NC(=O)[C@H](Cc1ccccc1)NC(=O)CNC(=O)[C@@H](C)NC(=O)[C@@H](N)Cc1ccc2nc(N)sc2c1)C(=O)O was tested. Which Ki [1] did it give?
**A.** 100 nM

**Q.** What about the Ki [2] of the same compound?
**A.** 1 nM

**Q.** And the Ki [3]?
**A.** > 10000 nM

**Q.** And the EC50 [5]?
**A.** 350 nM

**Q.** And the EC50 [4]?
**A.** 24 nM

**Q.** What does the source list for Cc1cc(C(N)=O)cc(C)c1C[C@H](N)C(=O)N[C@H](CO)C(=O)NCC(=O)N[C@@H](Cc1ccccc1)C(=O)N[C@@H](CC(C)C)C(=O)N[C@H](C(=O)O)[C@@H](C)O?
**A.** Ki [1]: 19 nM; Ki [2]: 1.2 nM; Ki [3]: > 10000 nM; EC50 [5]: 250 nM; EC50 [4]: 3.5 nM

**Q.** Which Ki [1] does the source give for Cc1cc(C(N)=O)cc(C)c1C[C@H](N)C(=O)NCC(=O)NCC(=O)N[C@@H](Cc1ccccc1)C(=O)N[C@@H](CC(C)C)C(=O)O (H-[Phe(2,6-Me2,4-CONH2)]GGFL-OH) here?
**A.** 9.8 nM

**Q.** What about the Ki [2] of the same compound?
**A.** 1 nM

**Q.** What about the Ki [3] of the same compound?
**A.** 1300 nM

**Q.** And the EC50 [5]?
**A.** 180 nM

**Q.** What about the EC50 [4] of the same compound?
**A.** 4.1 nM

**Q.** For CC(C)C[C@H](NC(=O)[C@H](Cc1ccccc1)NC(=O)CNC(=O)[C@@H](CO)NC(=O)[C@@H](N)Cc1cccc(C(N)=O)c1)C(=O)N[C@H](C(=O)O)[C@@H](C)O, which Ki [1] is on record?
**A.** 1100 nM

**Q.** What about the Ki [2] of the same compound?
**A.** 42 nM

**Q.** What about the Ki [3] of the same compound?
**A.** > 10000 nM

**Q.** What about the EC50 [4] of the same compound?
**A.** 730 nM

**Q.** What does the source list for CC(C)C[C@H](NC(=O)[C@H](Cc1ccccc1)NC(=O)CNC(=O)CNC(=O)[C@@H](N)Cc1cc[n+]([O-])cc1)C(=O)O (H-[X1]GGFL-OH)?
**A.** Ki [1]: > 10000 nM; Ki [2]: > 10000 nM; Ki [3]: > 10000 nM

**Q.** What does the source list for CC(C)C[C@@H](NC(=O)[C@H](Cc1ccccc1)NC(=O)CNC(=O)[C@@H](C)NC(=O)[C@@H](N)Cc1cc[n+]([O-])cc1)C(=O)O?
**A.** Ki [1]: > 10000 nM; Ki [2]: > 10000 nM; Ki [3]: > 10000 nM

**Q.** Which Ki [3] does the source give for CSCC[C@H](NC(=O)[C@H](Cc1ccccc1)NC(=O)CNC(=O)CNC(=O)[C@@H](N)Cc1ccc(O)cc1)C(=O)O here?
**A.** > 10000 nM

**Q.** For CC(C)C[C@H](NC(=O)[C@H](Cc1ccccc1)NC(=O)CNC(=O)[C@@H](CO)NC(=O)[C@@H](N)Cc1cc[n+]([O-])cc1)C(=O)N[C@H](C(=O)O)[C@@H](C)O, which Ki [1] is on record?
**A.** > 10000 nM

**Q.** What about the Ki [2] of the same compound?
**A.** 360 nM

**Q.** And the Ki [3]?
**A.** > 10000 nM

**Q.** How did the Ki [1] turn out when CC(C)C[C@@H](NC(=O)[C@H](Cc1ccccc1)NC(=O)CNC(=O)[C@@H](C)NC(=O)[C@@H](N)Cc1ccc(N)cc1)C(=O)O was run?
**A.** 1400 nM

**Q.** What about the Ki [2] of the same compound?
**A.** 19 nM

**Q.** What about the Ki [3] of the same compound?
**A.** > 10000 nM

**Q.** What about the EC50 [4] of the same compound?
**A.** 74 nM

**Q.** For CSCC[C@H](NC(=O)[C@H](Cc1ccccc1)NC(=O)CNC(=O)CNC(=O)[C@@H](N)Cc1ccc(C(N)=O)cc1)C(N)=O (H-[Phe(4-CONH2)]GGFM-NH2), which Ki [1] is on record?
**A.** 18 nM

**Q.** And the Ki [2]?
**A.** 1.3 nM

**Q.** And the Ki [3]?
**A.** 460 nM

**Q.** What about the EC50 [5] of the same compound?
**A.** 270 nM

**Q.** And the EC50 [4]?
**A.** 10 nM
